Molecular target: T1, Progestogen receptor of the uterus of rabbits (Oryctolagus cuniculus, UniProt P06186)
T1 construct: The uterus was removed, weighed and homogenized at 0° C; from tissue; host or cells: rabbit uterus, 105,000 g supernatant (estradiol-primed immature rabbits)
T1 sequence (P06186 1-930): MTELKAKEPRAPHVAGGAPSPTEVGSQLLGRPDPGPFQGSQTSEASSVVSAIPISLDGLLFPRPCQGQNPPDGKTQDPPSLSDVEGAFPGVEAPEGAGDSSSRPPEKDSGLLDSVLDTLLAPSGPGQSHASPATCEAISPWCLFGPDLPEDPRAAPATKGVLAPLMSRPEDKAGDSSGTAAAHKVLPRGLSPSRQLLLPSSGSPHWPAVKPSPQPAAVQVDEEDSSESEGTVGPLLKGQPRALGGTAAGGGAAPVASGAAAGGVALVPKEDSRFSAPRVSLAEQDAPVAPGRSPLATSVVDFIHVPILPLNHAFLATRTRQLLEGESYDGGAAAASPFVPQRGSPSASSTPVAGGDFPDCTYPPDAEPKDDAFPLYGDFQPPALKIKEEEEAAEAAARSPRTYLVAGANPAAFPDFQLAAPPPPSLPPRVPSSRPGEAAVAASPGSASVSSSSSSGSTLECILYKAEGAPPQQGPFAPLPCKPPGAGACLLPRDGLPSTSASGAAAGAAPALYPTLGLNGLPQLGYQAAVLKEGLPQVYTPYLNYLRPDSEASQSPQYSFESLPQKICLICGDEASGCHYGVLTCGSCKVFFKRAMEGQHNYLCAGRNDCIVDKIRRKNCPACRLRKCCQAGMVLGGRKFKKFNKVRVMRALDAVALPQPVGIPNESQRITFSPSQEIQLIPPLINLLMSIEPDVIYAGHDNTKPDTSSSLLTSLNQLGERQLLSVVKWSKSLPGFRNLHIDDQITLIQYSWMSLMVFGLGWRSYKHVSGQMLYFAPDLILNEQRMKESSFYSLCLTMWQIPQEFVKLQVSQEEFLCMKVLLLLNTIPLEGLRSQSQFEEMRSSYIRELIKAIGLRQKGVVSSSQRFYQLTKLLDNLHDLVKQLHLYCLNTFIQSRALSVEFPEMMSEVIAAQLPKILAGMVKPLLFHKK
Experiment: Progestogen receptor binding (displacement of tritiated product R)
Design: species or system rabbit
Conditions: for affinity for progestogen receptors (in words): conclusion
Protocol: C. Progestogen receptor of the uterus of rabbits
Immature rabbits weighing about 1 kg received a cutaneous application of 25 μg of estradiol and the animals were killed 5 days later. The uterus was removed, weighed and homogenized at 0° C. with a polytetrafluoroethylene-glass Potter, in a buffered TS solution [Tris 10. mM, 0.25M of saccharose, HCl-pH of 7.4] with 1 g of tissue per 50 ml of TS. […] The concentration of tied tritiated R (B) was then measured for each incubate by the technique of adsoprtion on carbon-dextran.
The calculation of the relative affinity of […] (ARL) was identical for all of the above receptor tests. One traced the following two curves: the percentage of tied tritiated hormone B/T as a function of the logarithm of the cold hormone concentration and B/T as a function of the logarithm of the concentration of the cold test product. One determined the line of the equation. [formula]
The intersection of the I50 line and the curves permits one to determine the concentrations of the cold hormone of the reference (CH) and the cold test compound (CX) which inhibit by 50% the tieing of tritiated hormone with the receptor. The relative affinity of tieing (ARL) of the test product was determined by the equation: [formula]

[1] = second table, incubation 2 H at 0° C.
[2] = second table, incubation 24 H at 0° C.

Row | relative affinity of tieing (ARL), Progestogen [1] | relative affinity of tieing (ARL), Progestogen [2] | affinity for progestogen receptors (in words) | relative affinity of tieing (ARL), Progestogen (incubation 2 H at 0° C.) | relative affinity of tieing (ARL), Progestogen (incubation 24 H at 0° C.) | Structure (SMILES)
1 | 6,3 | 8,3 | – | – | – | C[C@]12C[C@H](c3ccc([N+](C)(C)[O-])cc3)C3=C4CCC(=O)C=C4CC[C@H]3[C@@H]1CC[C@@]2(O)C#CCl [Example 26, N-oxide of 11β-[4-(N,N-dimethylamino)-phenyl]-21-chloro-19-nor-17α-Δ^4,9-pregnadiene-20-yne-17β-ol-3-one]
2 | – | – | very remarkable affinity | – | – | CC#C[C@]1(O)CC[C@H]2[C@@H]3CCC4=CC(=O)[C@H](C)CC4=C3[C@@H](c3ccc(N(C)C)cc3)C[C@@]21C [Example 5, 2α-methyl-11β-(4-dimethylaminophenyl)-17α-(prop-1-ynyl)-Δ^4,9-estradiene-17β-ol-3-one]
3 | 81 | 268 | – | – | – | C=C(C)C#C[C@]1(O)CC[C@H]2[C@@H]3CCC4=CC(=O)CCC4=C3[C@@H](c3ccc(N(C)C)cc3)C[C@@]21C [Example 23, 11β-[4-(N,N-dimethylamino)-phenyl]-23-methyl-19,21-dinor-17α-Δ^4,9,23-cholatriene-20-yn-17β-ol-3-one]
4 | 10 | 4,3 | – | – | – | C#C[C@@]1(O)CC[C@H]2[C@@H]3CCC4=CC(=O)CCC4=C3[C@@H](c3ccc(N(C)C)cc3)C[C@@]21C [Example 21, 11β-[4-(N,N-dimethylamino)-phenyl]-17β-ethynyl-Δ^4,9-estradiene-17α-ol-3-one]
5 | 78 | 467 | very remarkable affinity | – | – | CN(C)c1ccc([C@H]2C[C@@]3(C)[C@@H](CC[C@@]3(O)C#CCl)[C@@H]3CCC4=CC(=O)CCC4=C32)cc1 [Example 25, 11β-[4-(N,N-dimethylamino)-phenyl]-21-chloro-19-nor-17α-Δ^4,9-pregnadiene-20-yne-17β-ol-3-one]
6 | 1,1 | 2,5 | – | – | – | CC#C[C@]1(O)CC[C@H]2[C@@H]3CCC4=CC(=O)CCC4=C3[C@@H](c3ccc([N+](C)(C)[O-])cc3)C[C@@]21C [Example 35, N-oxide of 11β-[4-(N,N-dimethylamino)-phenyl]-17α-(prop-1-ynyl)-Δ^4,9-estradiene-17β-ol-3-one]
7 | – | – | – | < 0,1 | < 0,1 | CC#C[C@]1(O)CC[C@H]2[C@@H]3CCC4=CC(=O)C(C#N)(C#N)CC4=C3[C@@H](c3ccc(N(C)C)cc3)C[C@@]21C [Example 9, 2,2-dicyano-11β-(4-dimethylaminophenyl)-17α-(prop-1-ynyl)-Δ^4,9-estradiene-17β-ol-3-one]
8 | – | – | – | 4 | 4 | CC#C[C@]1(O)CC[C@H]2[C@@H]3CCC4=CC(=O)C(C)(C)CC4=C3[C@@H](c3ccc(N(C)C)cc3)C[C@@]21C [Example 1, 2,2-dimethyl-11β-(4-dimethylaminophenyl)-17α-(prop-1-ynyl)-Δ^4,9-estradiene-17β-ol-3-one]
9 | – | – | – | 40 | 39 | CC#C[C@]1(O)CC[C@H]2[C@@H]3CCC4=CC(=O)[C@H](C)CC4=C3[C@@H](c3ccc(N(C)C)cc3)C[C@@]21C [5 (2α), 2α-methyl-11β-(4-dimethylaminophenyl)-17α-(prop-1-ynyl)-Δ^4,9-estradiene-17β-ol-3-one]
10 | – | – | – | 44 | 44 | CC#C[C@]1(O)CC[C@H]2[C@@H]3CCC4=CC(=O)[C@@H](C)CC4=C3[C@@H](c3ccc(N(C)C)cc3)C[C@@]21C [5 (2β), 2-methyl-11β-(4-dimethylaminophenyl)-17α-(prop-1-ynyl)-Δ^4,9-estradiene-17β-ol-3-one]
11 | 41 | 250 | – | – | – | CN(C)c1ccc([C@H]2C[C@@]3(C)[C@@H](CC[C@@]3(O)C#Cc3ccccc3)[C@@H]3CCC4=CC(=O)CCC4=C32)cc1 [Example 29, 11β-[4-(N,N-dimethylamino)-phenyl]-21-phenyl-19-nor-17α-Δ^4,9-pregnadiene-20-yne-17β-ol-3-one]
12 | 81 | 351 | very remarkable affinity | – | – | C#C[C@]1(O)CC[C@H]2[C@@H]3CCC4=CC(=O)CCC4=C3[C@@H](c3ccc(N(C)C)cc3)C[C@@]21C [Example 32, 11β-[4-(N,N-dimethylamino)-phenyl]-17α-ethynyl-Δ^4,9-estradiene-17β-ol-3-one]

Row | Structure (SMILES) | relative affinity of tieing (ARL), Progestogen [1] | relative affinity of tieing (ARL), Progestogen [2] | affinity for progestogen receptors (in words) | relative affinity of tieing (ARL), Progestogen (incubation 2 H at 0° C.) | relative affinity of tieing (ARL), Progestogen (incubation 24 H at 0° C.)
13 | C=CC[C@]1(O)CC[C@H]2[C@@H]3CCC4=CC(=O)CCC4=C3[C@@H](c3ccc(N(C)C)cc3)C[C@@]21C [Example 37, 11β-[4-(N,N-dimethylamino)-phenyl]-17α-(prop-2-enyl)-Δ^4,9-estradien-17β-ol-3-one] | 175 | 843 | very remarkable affinity | – | –
14 | CN(C)c1ccc([C@H]2C[C@@]3(C)[C@@H](CC[C@@]3(O)C#C[Si](C)(C)C)[C@@H]3CCC4=CC(=O)CCC4=C32)cc1 [Example 44, 11β-[4-(N,N-dimethylamino)-phenyl]-21-trimethylsilyl-19-nor-17α-Δ^4,9-pregnadiene-20-yne-17β-ol-3-one] | 15,2 | 38 | – | – | –
15 | CC#C[C@]1(OC(C)=O)CC[C@H]2[C@@H]3CCc4cc(O)ccc4[C@H]3[C@@H](c3ccc(N(C)C)cc3)C[C@@]21C [2 (17 OAc), 11β-(4-dimethylaminophenyl)-17α-(prop-1-ynyl)-17β-acetoxy-Δ^1,3,5(10) -estratriene-3-ol] | – | – | – | 5 | 52
16 | C[C@]12C[C@H](c3ccc([N+](C)(C)[O-])cc3)[C@]34O[C@]35CCC(=O)C=C5CC[C@H]4[C@@H]1CC[C@@]2(O)C#CCl [Example 27, N-oxide of 11β-[4-(N,N-dimethylamino)-phenyl]-9α,10α-epoxy-21-chloro-19-nor-17α-Δ^4-pregnene-20-yne-17β-ol-3-one] | 0,6 | 0,4 | – | – | –
17 | CC#C[C@]1(O)CC[C@H]2[C@@H]3CCC4=C(CCC(=O)C4)[C@H]3[C@@H](c3ccc(N(C)C)cc3)C[C@@]21C [Example 10, 11β-(4-dimethylaminophenyl)-17α-(prop-1-ynyl)-Δ^5(10) -estrene-17β-ol-3-one] | – | – | – | 27 | 62

Source: US5043332A, “Novel 11β-substituted -19-nor-steriods” (priority 1981, dated 1991)
